What was measured:
[1] = Stability testing: storage in a closed container under air at 80° C., odevixibat content by HPLC; format: physicochemical; details: for Odevixibat content (%): closed container under air at 80° C., HPLC
Method: Analyses were performed on an Agilent, Series 1100, equipped with an Agilent 1260 Infinity degasser. Column: Waters XSelcet CHS C18 (150×3 mm, 3.5 μm); Mobile phase A: 0.1% formic acid in water, mobile phase B: 0.1% formic acid in acetonitrile; Gradient 45% to 90% B; flow rate 0.425 mL/min; Acquisition time 35 minutes; Run time 42 minutes; Wave length: 283 nm; Column temperature 20° C. The Chromeleon Version 6.8 software was used.
Samples of amorphous odevixibat (purity ˜91%) and of crystal modification 1 of odevixibat (purity>99%; crystallinity 100%) were stored in a closed container under air at 80° C. The amount of odevixibat in the samples was determined by HPLC at the beginning of the experiment, and was again determined after 1, 2 and 4 weeks.

[2] = Dynamic vapour sorption (DVS) water uptake of crystal modification 1; format: physicochemical
Method: DVS measurements were performed with an SPS11-100n “Sorptions Prüfsystem” from ProUmid (formerly “Projekt Messtechnik”), August-Nagel-Str. 23, 89079 Ulm (Germany). About 20 mg of sample was used. Humidity change rates of 5% per hour were used. The sample was placed on an aluminum or platinum holder on top of a microbalance and allowed to equilibrate at 0% RH before starting the pre-defined humidity program: • (1) 5 h at 0% RH • (2) 0→95% RH (5%/h); 5 h at 95% RH • (3) 95→0% RH (5%/h); 5 h at 0% RH • (4) 0→95% RH (5%/h); 5 h at 95% RH • (5) 95→0% RH (5%/h); 5 h at 0% RH High-Performance Liquid Chromatography (HPLC) The water uptake of crystal modification 1 was measured using dynamic vapour sorption (DVS). […] After drying the sample at 0% RH and increasing the relative humidity, most of the water was taken back up to about 25% RH. This corresponds to a water content of about 3.5% (w/w). An additional 1.5% (w/w) of water was then taken up when the humidity was increased up to 95% RH. […] Crystal modification 1 therefore seems to require about 3.5% (w/w) of water, which corresponds to a sesquihydrate.

[3] = 0 weeks (beginning of the experiment)
[4] = after 4 weeks of storage at 80° C. under air

| Odevixibat content (%) [1, 3] [%] | Odevixibat content (%) ([1]; 1 week) | Odevixibat content (%) ([1]; 2 weeks) | Odevixibat content (%) ([1]; 4 weeks) | decomposition [1, 4] [%] | change of purity [1, 4] | hygroscopicity ([2]; DVS, conclusion in words) | water content ([2]; after drying at 0% RH, water taken back up to about 25% RH) | maximum water uptake ([2]; at 95% RH, reversible) | water content ([2]; at about 30% relative humidity, based on the total crystal weight) | additional water uptake ([2]; humidity increased up to 95% RH (range 30-95% RH)) | SMILES |
| --- | --- | --- | --- | --- | --- | --- | --- | --- | --- | --- | --- |
| 91.1 | 90.9 | 91.04 | 90.8 | 0.3 |  |  |  |  |  |  | CCCCC1(CCCC)CN(c2ccccc2)c2cc(SC)c(OCC(=O)N[C@@H](C(=O)N[C@@H](CC)C(=O)O)c3ccc(O)cc3)cc2S(=O)(=O)N1 [Amorphous odevixibat, 1,1-dioxo-3,3-dibutyl-5-phenyl-7-methylthio-8-(N—{(R)-α-[N—((S)-1-carboxypropyl)carbamoyl]-4-hydroxybenzyl}carbamoylmethoxy)-2,3,4,5-tetrahydro-1,2,5-benzothiadiazepine, reference compound] |
| 99.13 | 99.15 | 99.18 | 99.24 |  | had not changed | slightly hygroscopic | about 3.5 % (w/w) | about 5.0 % (w/w) | about 3.5 % (w/w) | 1.5 % (w/w) | CCCCC1(CCCC)CN(c2ccccc2)c2cc(SC)c(OCC(=O)N[C@@H](C(=O)N[C@@H](CC)C(=O)O)c3ccc(O)cc3)cc2S(=O)(=O)N1 [crystal modification 1, 1,1-dioxo-3,3-dibutyl-5-phenyl-7-methylthio-8-(N—{(R)-α-[N—((S)-1-carboxypropyl)carbamoyl]-4-hydroxybenzyl}carbamoylmethoxy)-2,3,4,5-tetrahydro-1,2,5-benzothiadiazepine] |

— US12091394B2, “Crystal modifications of odevixibat” (Albireo AB, priority 2018, dated 2024)
